Source: ChEMBL document CHEMBL1201862, “PubChem BioAssay data set” (2004)
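A five-concentration, 48-hour dose response in 96-well plates underlies each endpoint, interpolated linearly between surrounding concentrations. GI50 is the concentration that inhibits growth by half.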 The source made the active and inactive calls. Cut-off read from the data, not from the text of the source: active = GI50 up to about 1.1 µM and inactive = higher.

Assays:
Assay in all cases: DTP human tumour cell line panel, 48 h
RPMI-8226 = test system: RPMI-8226
T47D = test system: T47D
SK-OV-3 = test system: SK-OV-3
SNB-19 = test system: SNB-19
SK-MEL-5 = test system: SK-MEL-5
SR = test system: SR
SN12C = test system: SN12C
HL-60 = test system: HL-60
HCT-116 = test system: HCT-116
EKVX = test system: EKVX
A549 = test system: A549
SW-620 = test system: SW-620
HCC 2998 = test system: HCC 2998
HT-29 = test system: HT-29
UO-31 = test system: UO-31
Hs-578T = test system: Hs-578T
SF-295 = test system: SF-295
OVCAR-5 = test system: OVCAR-5
HCT-15 = test system: HCT-15
IGROV-1 = test system: IGROV-1
COLO 205 = test system: COLO 205
SK-MEL-2 = test system: SK-MEL-2
LOX IMVI = test system: LOX IMVI
MOLT-4 = test system: MOLT-4
K562 = test system: K562
NCI/ADR-RES = test system: NCI/ADR-RES
ACHN = test system: ACHN
SNB-75 = test system: SNB-75
NCI-H522 = test system: NCI-H522
CCRF-CEM = test system: CCRF-CEM
OVCAR-4 = test system: OVCAR-4
HOP-62 = test system: HOP-62
CAKI-1 = test system: CAKI-1
OVCAR-3 = test system: OVCAR-3
U-251 = test system: U-251
NCI-H23 = test system: NCI-H23
MDA-N = test system: MDA-N
TK-10 = test system: TK-10
PC-3 = test system: PC-3
Malme-3M = test system: Malme-3M
A498 = test system: A498
UACC-62 = test system: UACC-62
HOP-92 = test system: HOP-92
M14 = test system: M14
NCI-H460 = test system: NCI-H460
SK-MEL-28 = test system: SK-MEL-28
MDA-MB-435 = test system: MDA-MB-435
RXF 393 = test system: RXF 393
KM12 = test system: KM12
MCF7 = test system: MCF7
NCI-H226 = test system: NCI-H226
BT-549 = test system: BT-549
OVCAR-8 = test system: OVCAR-8
UACC-257 = test system: UACC-257
MDA-MB-231 = test system: MDA-MB-231
786-0 = test system: 786-0
SF-268 = test system: SF-268
DU-145 = test system: DU-145

Measured: GI50

O=C1C(c2c(O)[nH]c3ccc(S(=O)(=O)O)cc23)=Nc2ccccc21
inactive: RPMI-8226 > 100 µM | T47D 72.1 µM | SK-OV-3 > 100 µM | SNB-19 > 100 µM | SK-MEL-5 > 100 µM | SR > 100 µM | SN12C > 100 µM | HL-60 > 100 µM | HCT-116 > 100 µM | EKVX > 100 µM | A549 > 100 µM | SW-620 > 100 µM | HCC 2998 > 100 µM | HT-29 > 100 µM | UO-31 > 100 µM | Hs-578T > 100 µM | SF-295 > 100 µM | OVCAR-5 > 100 µM | IGROV-1 > 100 µM | COLO 205 > 100 µM | SK-MEL-2 > 100 µM | LOX IMVI > 100 µM | MOLT-4 > 100 µM | K562 > 100 µM | NCI/ADR-RES > 100 µM | ACHN > 100 µM | SNB-75 > 100 µM | NCI-H522 > 100 µM | CCRF-CEM > 100 µM | OVCAR-4 94.4 µM | HOP-62 > 100 µM | CAKI-1 > 100 µM | OVCAR-3 > 100 µM | U-251 > 100 µM | NCI-H23 > 100 µM | MDA-N > 100 µM | TK-10 > 100 µM | PC-3 > 100 µM | Malme-3M > 100 µM | A498 > 100 µM | UACC-62 > 100 µM | HOP-92 > 100 µM | M14 > 100 µM | NCI-H460 > 100 µM | SK-MEL-28 > 100 µM | MDA-MB-435 > 100 µM | RXF 393 > 100 µM | KM12 > 100 µM | MCF7 53.5 µM | NCI-H226 > 100 µM | BT-549 > 100 µM | OVCAR-8 > 100 µM | UACC-257 > 100 µM | MDA-MB-231 > 100 µM | 786-0 > 100 µM | SF-268 > 100 µM | DU-145 > 100 µM
> 100 µM: HCT-15

CCCCC[C@H](O)[C@H](C)C=C1SCCCS1
inactive: RPMI-8226 > 100 µM | T47D 43.2 µM | SK-OV-3 > 100 µM | SNB-19 > 100 µM | SK-MEL-5 > 100 µM | SR > 100 µM | SN12C > 100 µM | HL-60 > 100 µM | HCT-116 > 100 µM | EKVX > 100 µM | A549 > 100 µM | SW-620 > 100 µM | HCC 2998 > 100 µM | HT-29 > 100 µM | UO-31 > 100 µM | Hs-578T > 100 µM | SF-295 > 100 µM | OVCAR-5 > 100 µM | IGROV-1 > 100 µM | COLO 205 > 100 µM | SK-MEL-2 > 100 µM | LOX IMVI > 100 µM | MOLT-4 > 100 µM | K562 > 100 µM | NCI/ADR-RES > 100 µM | ACHN > 100 µM | SNB-75 > 100 µM | NCI-H522 > 100 µM | CCRF-CEM > 100 µM | OVCAR-4 > 100 µM | HOP-62 > 100 µM | CAKI-1 > 100 µM | OVCAR-3 > 100 µM | U-251 > 100 µM | NCI-H23 > 100 µM | MDA-N > 100 µM | TK-10 > 100 µM | PC-3 > 100 µM | Malme-3M > 100 µM | A498 > 100 µM | UACC-62 > 100 µM | HOP-92 > 100 µM | M14 > 100 µM | SK-MEL-28 > 100 µM | MDA-MB-435 > 100 µM | RXF 393 > 100 µM | KM12 > 100 µM | MCF7 > 100 µM | NCI-H226 > 100 µM | BT-549 > 100 µM | OVCAR-8 > 100 µM | UACC-257 > 100 µM | MDA-MB-231 > 100 µM | 786-0 > 100 µM | SF-268 > 100 µM | DU-145 > 100 µM
> 100 µM: HCT-15
